Source: patent US8337891B2, “Enteric coated composition comprising prostaglandin analogs as chloride channel opener” (Sucampo AG, priority 2003, dated 2012)

Columns and labels:
[1] = ratio of monocyclic/bicyclic tautomer in pH2 solvent by 1H-NMR; format: physicochemical
Procedure: The compound 1 (bicyclic structure, solid) was dissolved in D2O—CD3OD(1:1), which was adjusted to pH 2 with DCl. The ratio of monocyclic tautomer/bicyclic tautomer of compound 1 in the pH2 solvent was determined with ^1H-NMR.
According to the same manner described in the test example 2, the ratio of monocyclic tautomer/bicyclic tautomer of compound 2 in pH2 solvent was determined by ^1H-NMR.

[2] = tautomeric form of the solid compound; format: physicochemical; settings: provided as a solid compound

Ratio of monocyclic tautomer (%) ([1]; D2O-CD3OD (1:1) adjusted to pH 2 with DCl, 1H-NMR, starting from solid bicyclic tautomer): 8.5%
compound converted into the monocyclic tautomer ([1]; pH2 solvent, bicyclic ring opened): more than 5%
proportion of the compound existing as the bicyclic structure [2]: ~100%
Structure (SMILES): CCCCC(F)(F)[C@@]1(O)CC[C@H]2[C@@H](CC(=O)[C@@H]2CCCCCCC(=O)O)O1 [Compound 1, 13,14-dihydro-15-keto-16,16-difluoro-PGE1]
